1 molecule from ChEMBL document CHEMBL5370603, “N-(2-Aminophenyl)-benzamide Inhibitors of Class I HDAC Enzymes with Antiproliferative and Antifibrotic Activity” (J Med Chem, 2023) can be followed below.

Each structure is given as a SMILES string. Active and inactive are the calls of the source. The rule behind the calls is not given here. Bounds are passed on as bounds.

Histone deacetylase 1, sequence (Q13547 whole entry): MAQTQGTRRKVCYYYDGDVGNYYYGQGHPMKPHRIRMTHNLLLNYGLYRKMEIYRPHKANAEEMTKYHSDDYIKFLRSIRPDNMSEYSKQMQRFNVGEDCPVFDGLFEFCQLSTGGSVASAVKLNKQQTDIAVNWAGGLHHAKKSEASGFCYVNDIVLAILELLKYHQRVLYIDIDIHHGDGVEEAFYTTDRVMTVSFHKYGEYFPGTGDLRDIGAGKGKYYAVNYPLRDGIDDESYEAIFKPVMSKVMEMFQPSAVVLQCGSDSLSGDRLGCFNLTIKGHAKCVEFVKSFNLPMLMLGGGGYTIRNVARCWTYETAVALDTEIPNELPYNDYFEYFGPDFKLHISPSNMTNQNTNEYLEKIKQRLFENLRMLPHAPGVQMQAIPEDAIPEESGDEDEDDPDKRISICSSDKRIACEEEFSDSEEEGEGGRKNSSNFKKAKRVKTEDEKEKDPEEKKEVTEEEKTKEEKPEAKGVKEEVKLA

One series has as its target Histone deacetylase 1 (Homo sapiens, UniProt Q13547). The experiment in a line: Inhibition of human recombinant HDAC1 using Ac-Leu-Gly-Lys(Ac)-AMC as substrate preincubated with enzyme for 30 mins followed by substrate addition and measured after 90 mins by fluorescence based analysis.
Settings: not given
Regarding `Nc1ccccc1NC(=O)c1ccc(COc2ccc(CNC(=O)[C@@H]3CCC(=O)N3Cc3ccccc3)cc2)cc1`, the IC50 was 100 nM.

Another series deals with Histone deacetylase 2 (Homo sapiens, UniProt Q92769). Kind of series: Inhibition of human recombinant HDAC2 using Ac-Leu-Gly-Lys(Ac)-AMC as substrate preincubated with enzyme for 30 mins followed by substrate addition and measured after 90 mins by fluorescence based analysis.
Histone deacetylase 2, sequence (Q92769 whole entry): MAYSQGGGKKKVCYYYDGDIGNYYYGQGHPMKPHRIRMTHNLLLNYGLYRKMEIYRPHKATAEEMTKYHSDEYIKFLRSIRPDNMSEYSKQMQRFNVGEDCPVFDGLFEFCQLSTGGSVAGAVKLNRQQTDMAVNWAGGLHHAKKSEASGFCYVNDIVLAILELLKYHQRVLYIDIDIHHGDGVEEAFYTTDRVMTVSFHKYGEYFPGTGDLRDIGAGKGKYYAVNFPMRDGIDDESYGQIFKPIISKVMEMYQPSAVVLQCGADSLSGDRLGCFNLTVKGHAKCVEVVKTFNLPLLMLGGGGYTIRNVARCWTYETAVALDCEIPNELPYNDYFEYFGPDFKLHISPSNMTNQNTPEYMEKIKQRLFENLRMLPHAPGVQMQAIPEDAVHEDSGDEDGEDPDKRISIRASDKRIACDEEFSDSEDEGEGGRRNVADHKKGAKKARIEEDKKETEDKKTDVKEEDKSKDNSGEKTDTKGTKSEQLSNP
Settings: not given
For the molecule `Nc1ccccc1NC(=O)c1ccc(COc2ccc(CNC(=O)[C@@H]3CCC(=O)N3Cc3ccccc3)cc2)cc1`, the IC50 worked out at 116 nM.

A further series deals with Histone deacetylase 3 (Homo sapiens, UniProt O15379). The experiment in a line: Inhibition of human recombinant HDAC3 using Ac-Leu-Gly-Lys(Ac)-AMC as substrate preincubated with enzyme for 30 mins followed by substrate addition and measured after 90 mins by fluorescence based analysis.
Histone deacetylase 3, sequence (O15379 whole entry): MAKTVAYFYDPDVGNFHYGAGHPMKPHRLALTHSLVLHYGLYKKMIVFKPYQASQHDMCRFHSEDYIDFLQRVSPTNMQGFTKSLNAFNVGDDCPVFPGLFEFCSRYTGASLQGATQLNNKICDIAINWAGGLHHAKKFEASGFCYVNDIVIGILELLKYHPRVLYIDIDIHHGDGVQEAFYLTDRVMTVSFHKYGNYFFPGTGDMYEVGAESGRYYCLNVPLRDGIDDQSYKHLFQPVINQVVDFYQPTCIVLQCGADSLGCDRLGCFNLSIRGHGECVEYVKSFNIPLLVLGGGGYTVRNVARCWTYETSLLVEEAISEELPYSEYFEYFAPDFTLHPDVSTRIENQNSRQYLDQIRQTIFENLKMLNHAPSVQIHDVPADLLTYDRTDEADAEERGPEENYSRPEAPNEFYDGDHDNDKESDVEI
Settings: not given
As for `Nc1ccccc1NC(=O)c1ccc(COc2ccc(CNC(=O)[C@@H]3CCC(=O)N3Cc3ccccc3)cc2)cc1`, the IC50 was found to be 361 nM.

For a further series, the target named is T1, Protein deacetylase HDAC6 (Homo sapiens, UniProt Q9UBN7).
T1 sequence (Q9UBN7 whole entry): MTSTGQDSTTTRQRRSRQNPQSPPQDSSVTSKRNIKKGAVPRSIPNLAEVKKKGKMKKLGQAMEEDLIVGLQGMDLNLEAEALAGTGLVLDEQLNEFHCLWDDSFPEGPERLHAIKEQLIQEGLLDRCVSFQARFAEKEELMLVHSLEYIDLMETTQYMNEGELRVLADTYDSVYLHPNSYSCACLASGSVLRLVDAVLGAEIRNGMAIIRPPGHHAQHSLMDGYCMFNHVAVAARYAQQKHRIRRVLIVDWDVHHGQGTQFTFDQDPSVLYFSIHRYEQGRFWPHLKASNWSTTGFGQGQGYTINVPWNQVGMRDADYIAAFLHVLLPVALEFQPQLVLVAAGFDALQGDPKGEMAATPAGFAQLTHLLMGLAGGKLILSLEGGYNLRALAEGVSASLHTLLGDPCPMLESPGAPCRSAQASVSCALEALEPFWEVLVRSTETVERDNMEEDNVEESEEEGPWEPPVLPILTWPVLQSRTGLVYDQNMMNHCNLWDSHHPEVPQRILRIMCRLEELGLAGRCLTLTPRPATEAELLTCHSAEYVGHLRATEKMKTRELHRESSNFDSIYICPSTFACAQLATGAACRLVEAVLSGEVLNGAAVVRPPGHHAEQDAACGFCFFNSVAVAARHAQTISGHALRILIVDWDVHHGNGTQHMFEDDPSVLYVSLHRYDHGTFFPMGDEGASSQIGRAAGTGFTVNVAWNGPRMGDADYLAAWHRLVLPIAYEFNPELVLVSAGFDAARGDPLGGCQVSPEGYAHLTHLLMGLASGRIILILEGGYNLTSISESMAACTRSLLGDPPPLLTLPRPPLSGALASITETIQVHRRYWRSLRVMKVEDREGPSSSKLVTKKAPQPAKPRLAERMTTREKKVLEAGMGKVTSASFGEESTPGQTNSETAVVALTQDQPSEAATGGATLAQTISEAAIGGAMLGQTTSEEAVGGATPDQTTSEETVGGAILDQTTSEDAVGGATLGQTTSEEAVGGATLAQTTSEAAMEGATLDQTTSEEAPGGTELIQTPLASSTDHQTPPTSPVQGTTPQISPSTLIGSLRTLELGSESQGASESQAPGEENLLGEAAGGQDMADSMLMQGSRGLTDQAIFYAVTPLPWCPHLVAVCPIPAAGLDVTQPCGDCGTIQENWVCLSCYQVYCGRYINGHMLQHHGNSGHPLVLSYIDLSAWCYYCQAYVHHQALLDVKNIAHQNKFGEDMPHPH
The experiment in a line: Inhibition of C-terminal FLAG-tagged human recombinant full length HDAC6 expressed in baculovirus expression system using Boc-Lys(Ac)-AMC as substrate preincubated with enzyme for 15 mins followed by substrate addition and measured after 60 mins by fluorescence based analysis.
Settings: not given
With `Nc1ccccc1NC(=O)c1ccc(COc2ccc(CNC(=O)[C@@H]3CCC(=O)N3Cc3ccccc3)cc2)cc1`, the IC50 is greater than 100000 nM.

The target of a further series is T2, Histone deacetylase 8 (Homo sapiens, UniProt Q9BY41).
T2 sequence (Q9BY41 whole entry): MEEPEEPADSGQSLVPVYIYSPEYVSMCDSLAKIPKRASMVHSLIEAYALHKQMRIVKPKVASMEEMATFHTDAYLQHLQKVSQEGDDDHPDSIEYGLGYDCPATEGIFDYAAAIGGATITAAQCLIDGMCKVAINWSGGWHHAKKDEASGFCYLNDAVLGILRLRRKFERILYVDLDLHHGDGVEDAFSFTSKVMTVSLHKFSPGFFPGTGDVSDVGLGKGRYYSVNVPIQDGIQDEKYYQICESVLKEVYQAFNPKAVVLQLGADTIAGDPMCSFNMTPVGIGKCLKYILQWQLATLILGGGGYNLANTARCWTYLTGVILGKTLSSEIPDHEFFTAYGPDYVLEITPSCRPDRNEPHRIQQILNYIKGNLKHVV
Kind of series: Inhibition of C-terminal His-tagged human recombinant full length HDAC8 (1 to 377 residues) expressed in Sf9 cells using Ac-Leu-Gly-Lys(trifluoroAc)-AMC as substrate preincubated with enzyme for 30 mins followed by substrate addition and measured after 90 mins by fluorescence based analysis.
Settings: not given
In the case of `Nc1ccccc1NC(=O)c1ccc(COc2ccc(CNC(=O)[C@@H]3CCC(=O)N3Cc3ccccc3)cc2)cc1`, the concentration for half-maximal inhibition (IC50) was greater than 10000 nM.

The target in the next series is Histone deacetylase 4 (Homo sapiens, UniProt P56524). Kind of series: Inhibition of N-terminal GST-tagged/C-terminal His tagged human recombinant HDAC4 (627 to 1084 residues) expressed in baculovirus-infected Sf9 cells using Ac-Leu-Gly-Lys(trifluoroAc)-AMC as substrate preincubated with enzyme for 15 mins followed by substrate addition and measured after 60 mins by fluorescence based analysis.
Histone deacetylase 4, sequence (P56524 whole entry, the tested form may be a part): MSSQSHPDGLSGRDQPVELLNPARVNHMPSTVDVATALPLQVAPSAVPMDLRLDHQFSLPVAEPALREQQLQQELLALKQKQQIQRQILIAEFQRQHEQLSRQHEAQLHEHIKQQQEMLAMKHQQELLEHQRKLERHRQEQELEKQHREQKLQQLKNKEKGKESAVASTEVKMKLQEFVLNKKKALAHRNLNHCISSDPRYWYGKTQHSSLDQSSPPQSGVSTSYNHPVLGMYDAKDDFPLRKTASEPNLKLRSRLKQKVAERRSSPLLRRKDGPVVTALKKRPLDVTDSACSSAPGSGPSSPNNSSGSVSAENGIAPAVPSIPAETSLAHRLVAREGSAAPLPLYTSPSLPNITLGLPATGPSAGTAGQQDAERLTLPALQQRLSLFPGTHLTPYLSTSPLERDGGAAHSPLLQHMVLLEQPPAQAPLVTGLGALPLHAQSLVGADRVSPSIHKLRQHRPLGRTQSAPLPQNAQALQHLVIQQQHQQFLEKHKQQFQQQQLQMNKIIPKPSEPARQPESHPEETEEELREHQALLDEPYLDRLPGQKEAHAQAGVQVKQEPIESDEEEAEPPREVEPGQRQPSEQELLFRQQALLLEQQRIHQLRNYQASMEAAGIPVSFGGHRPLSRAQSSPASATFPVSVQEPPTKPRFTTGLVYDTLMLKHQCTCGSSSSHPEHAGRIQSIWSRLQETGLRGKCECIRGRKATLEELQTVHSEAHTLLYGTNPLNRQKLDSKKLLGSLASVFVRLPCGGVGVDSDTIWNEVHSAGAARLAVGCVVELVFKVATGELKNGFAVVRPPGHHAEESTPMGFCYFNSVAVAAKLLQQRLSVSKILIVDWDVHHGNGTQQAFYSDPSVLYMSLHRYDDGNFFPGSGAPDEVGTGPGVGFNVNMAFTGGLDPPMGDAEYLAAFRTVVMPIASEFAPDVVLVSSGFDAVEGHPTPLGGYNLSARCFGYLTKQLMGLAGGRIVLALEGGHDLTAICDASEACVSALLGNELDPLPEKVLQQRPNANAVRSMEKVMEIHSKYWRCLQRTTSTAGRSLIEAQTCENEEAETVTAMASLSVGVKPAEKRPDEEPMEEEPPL
Settings: not given
For the molecule `Nc1ccccc1NC(=O)c1ccc(COc2ccc(CNC(=O)[C@@H]3CCC(=O)N3Cc3ccccc3)cc2)cc1`, the IC50 was greater than 100000 nM.

Another series relates to A549. Kind of series: Antiproliferative activity against human A549 cells assessed as inhibition of cell growth incubated for 72 hrs by MTT assay. The class given is functional, cell-based. As to conditions: A549, 72 h. (Tetrazolium assays rely on reduction of a dye to a coloured formazan, in cell work by metabolically active cells.)
On to `Nc1ccccc1NC(=O)c1ccc(COc2ccc(CNC(=O)[C@@H]3CCC(=O)N3Cc3ccccc3)cc2)cc1`, for which the IC50 stood at 6800 nM.

A further series relates to SF-268. Kind of series: Antiproliferative activity against human SF-268 cells assessed as inhibition of cell growth incubated for 72 hrs by MTT assay. The class given is functional, cell-based. Conditions: SF-268, 72 h.
Consider `Nc1ccccc1NC(=O)c1ccc(COc2ccc(CNC(=O)[C@@H]3CCC(=O)N3Cc3ccccc3)cc2)cc1`, for which the IC50 came to 4800 nM.

The test system of a further series is Caco-2. The experiment in a line: Antiproliferative activity against human Caco-2 cells assessed as inhibition of cell growth incubated for 72 hrs by MTT assay. The class given is functional, cell-based. Conditions: Caco-2, 72 h.
In the case of `Nc1ccccc1NC(=O)c1ccc(COc2ccc(CNC(=O)[C@@H]3CCC(=O)N3Cc3ccccc3)cc2)cc1`, the IC50 turned out to be 1900 nM.

Tested on in another series: not listed separately
The experiment in a line: Toxicity against human primary lung fibroblasts assessed as effect on cell viability upto 20 uM incubated for 72 hrs by MTT assay. As to conditions: fibroblast. The class given is cell-based.
Turning to `Nc1ccccc1NC(=O)c1ccc(COc2ccc(CNC(=O)[C@@H]3CCC(=O)N3Cc3ccccc3)cc2)cc1`, the Activity entry is listed as “Non-Toxic”.

Another series deals with Mus musculus. Kind of series: Anti-fibrotic activity against BLM-induced pulmonary fibrosis C57BL/6 mouse model assessed as reduction in pulmonary edema by measuring decrease in total protein concentration in BALF at 30 mg/kg, ip bid for 15 days starting from 1 day before BLM challenge by Bradford assay. It is filed as functional, organism-based. As to conditions: time 15.0 day.
On to `Nc1ccccc1NC(=O)c1ccc(COc2ccc(CNC(=O)[C@@H]3CCC(=O)N3Cc3ccccc3)cc2)cc1`, for which the outcome was Active.

For the next series, the system named is Mus musculus. The experiment in a line: Anti-fibrotic activity against BLM-induced pulmonary fibrosis C57BL/6 mouse model assessed as reduction in pulmonary inflammation by measuring decrease in cell number infiltration in BALF at 30 mg/kg, ip bid for 15 days starting from 1 day before BLM challenge by hematocytometer analysis. It is filed as functional, organism-based. As to conditions: time 15.0 day.
As to `Nc1ccccc1NC(=O)c1ccc(COc2ccc(CNC(=O)[C@@H]3CCC(=O)N3Cc3ccccc3)cc2)cc1`, the result was Active.

A further series concerns Mus musculus. Kind of series: Anti-fibrotic activity against BLM-induced pulmonary fibrosis C57BL/6 mouse model assessed as reduction in soluble collagen protein level in BALF at 30 mg/kg, ip bid for 15 days starting from 1 day before BLM challenge by Direct Red assay. The class given is functional, organism-based. Conditions: time 15.0 day.
As for `Nc1ccccc1NC(=O)c1ccc(COc2ccc(CNC(=O)[C@@H]3CCC(=O)N3Cc3ccccc3)cc2)cc1`, the result was Active.

For a further series, the system named is Mus musculus. Kind of series: Anti-fibrotic activity against BLM-induced pulmonary fibrosis C57BL/6 mouse model assessed as reduction in Col1a1 gene expression in lungs at 30 mg/kg, ip bid for 15 days starting from 1 day before BLM challenge by qRT-PCR analysis. As to conditions: time 15.0 day. It is filed as functional, organism-based.
For `Nc1ccccc1NC(=O)c1ccc(COc2ccc(CNC(=O)[C@@H]3CCC(=O)N3Cc3ccccc3)cc2)cc1`, the result was Active.

Another series relates to Mus musculus. Kind of series: Anti-fibrotic activity against BLM-induced pulmonary fibrosis C57BL/6 mouse model assessed as reduction in fibrotic masses in lungs at 30 mg/kg, ip bid for 15 days starting from 1 day before BLM challenge by Hematoxylin-Eosin staining based analysis. The class given is functional, organism-based. Conditions: time 15.0 day.
In the case of `Nc1ccccc1NC(=O)c1ccc(COc2ccc(CNC(=O)[C@@H]3CCC(=O)N3Cc3ccccc3)cc2)cc1`, the outcome was Active.

For a further series, the system named is Mus musculus. The experiment in a line: Anti-fibrotic activity against BLM-induced pulmonary fibrosis C57BL/6 mouse model assessed as reduction in collagen deposition in lungs at 30 mg/kg, ip bid for 15 days starting from 1 day before BLM challenge by Sirius Red staining based analysis. Conditions: time 15.0 day. It is filed as functional, organism-based.
Regarding `Nc1ccccc1NC(=O)c1ccc(COc2ccc(CNC(=O)[C@@H]3CCC(=O)N3Cc3ccccc3)cc2)cc1`, the outcome was Active.

A further series relates to Fibroblast. Kind of series: Anti-fibrotic activity in human primary lung fibroblast assessed as inhibition of TGFbeta1-induced COL1A1 mRNA expression at 5 to 10 uM pretreated for 1 hr followed by TGFbeta1 stimulation and measured after 24 hrs by qRT-PCR analysis. It is filed as functional, cell-based. As to conditions: dose 5-10 µM, time 25.0 hrs. On the technique in general: Quantitative PCR measures a nucleic acid by following its amplification.
Take `Nc1ccccc1NC(=O)c1ccc(COc2ccc(CNC(=O)[C@@H]3CCC(=O)N3Cc3ccccc3)cc2)cc1`: the result was Active.

In general, IC50 refers to the concentration that inhibits the measured activity by half.
